Measurements from patent publication US5157020A, “Synthetic senescent cell antigen” (Research Corporation Tech., Inc., priority 1990, dated 1992).

Molecular target: T1, band 3 (Homo sapiens, UniProt P02730)
T1 construct: endogenous in cells; host or cells: stored red blood cells (middle-aged cells stored in Alsever's for 5 wks at 4 C)
T1 sequence (P02730 1-911): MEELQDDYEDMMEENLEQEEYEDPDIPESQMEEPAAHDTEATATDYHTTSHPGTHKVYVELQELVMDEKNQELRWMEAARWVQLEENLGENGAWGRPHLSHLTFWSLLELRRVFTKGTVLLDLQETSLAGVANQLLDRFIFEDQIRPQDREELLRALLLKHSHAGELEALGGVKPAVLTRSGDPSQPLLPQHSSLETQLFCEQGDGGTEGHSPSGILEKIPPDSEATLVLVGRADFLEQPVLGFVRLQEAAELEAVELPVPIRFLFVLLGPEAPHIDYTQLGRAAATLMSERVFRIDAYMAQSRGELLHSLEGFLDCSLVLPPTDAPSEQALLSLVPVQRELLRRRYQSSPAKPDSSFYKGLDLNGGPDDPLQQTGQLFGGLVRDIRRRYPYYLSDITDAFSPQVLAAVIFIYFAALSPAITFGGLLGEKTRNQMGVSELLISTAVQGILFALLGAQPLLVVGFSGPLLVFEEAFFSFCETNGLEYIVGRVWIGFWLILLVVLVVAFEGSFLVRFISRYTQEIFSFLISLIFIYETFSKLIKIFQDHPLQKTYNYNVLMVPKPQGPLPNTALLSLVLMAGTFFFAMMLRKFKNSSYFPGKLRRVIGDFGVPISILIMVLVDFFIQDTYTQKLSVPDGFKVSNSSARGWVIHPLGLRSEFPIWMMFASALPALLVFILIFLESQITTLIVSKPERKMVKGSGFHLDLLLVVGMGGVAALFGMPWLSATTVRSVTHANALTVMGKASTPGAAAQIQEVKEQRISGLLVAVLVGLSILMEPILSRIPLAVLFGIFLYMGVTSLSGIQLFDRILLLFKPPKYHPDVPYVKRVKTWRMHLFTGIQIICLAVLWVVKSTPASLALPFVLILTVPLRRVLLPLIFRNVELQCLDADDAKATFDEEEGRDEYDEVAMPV
Assay: DIDS treatment of stored cells prior to incubation with senescent cell IgG
Format: cell-based
Conditions: stored cells incubated with 25 uM DIDS for 90 min at room temperature before senescent cell IgG
Procedure: Since DNP and DIDS modification of ANION 1 and COOH abolished inhibition of senescent cell IgG binding, we reasoned that DIDS binding to band 3 lysines in whole cells should interfere with senescent cell IgG binding. Stored cells were incubated with 25 uM DIDS for 90 min at room temperature prior to incubation with senescent cell IgG. […] Another possibility is that DIDS binding perturbs the configuration of the molecule so that the binding site is altered. However, since our studies indicate that the actual antigenic determinants reside on ANION 1 and COOH (Example 1), it is unlikely that a distant perturbation of the antigenic site by DIDS binding is responsible. It is more likely that a DIDS reactive lysine lies in or near enough to the antigenic site to cause steric hindrance.

In the case of `O=S(=O)(O)c1cc(N=C=S)ccc1CCc1ccc(N=C=S)cc1S(=O)(=O)O` [DIDS, diisothiocyano dihydrostilbene disulphonate], the “inhibition of senescent cell IgG binding” value was 54±3%.
